Assay [1] relates to cerebral blood flow. Nature of the assay: Normal cerebral flow stream test. It is filed as in vivo. As to conditions: Rattus norvegicus, iv; urethane anesthetized; laser Doppler; read-out: active dose (increase in cerebral blood flow). Here is the method: 6. Normal cerebral flow stream test
Experiment was carried out using rats anesthetized with urethane. After a cannulas for blood pressure monitoring and that for drug administration were inserted into femoral artery and vein, respectively. Temporal bone was cut away on a brain stereotaxis apparatus and a probe for measurement of cerebral blood flow was placed on dura mater. The cerebral blood flow was measured using a laser Dopplar blood flow meter. Firstly, a solvent of the test compound was administered intravenously and then three doses of the compound were administered in order of dose every fifteen-minute intervals. When an average of increase in cerebral blood flow due to the test compound minus 2×SE was larger than that of change in cerebral blood flow due to the solvent, the dose was estimated as "active". The compound (1B) was active in the dose of not less than 3 mg/kg i.v.

Assay [2] concerns Brain microsomal fractions. Nature of the assay: in vitro Anti-lipid peroxidation effect (TBAR production, Fe3+-ADP/NADPH). It is filed as biochemical, rat (SD strain, male). The essentials:
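Male SD rat brain microsomes (0.2 mg protein) incubated 15 min at 37 °C with Fe3+ (0.1 mM)-ADP (0.5 mM) and 0.2 mM NADPH in HEPES/KCl pH 7.4, with or without compound. TBAR measured at 535 nm after TCA-TBA-HCl boiling; inhibition of TBAR production reported.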

Assay [3] concerns Mouse Cerebral Ischemia/Reperfusion. Briefly: in vivo Behavior test (Mouse Cerebral Ischemia/Reperfusion Test). As to conditions: ip. More on the design: species or system mouse (ICR strain, male). Here is the method:
Bilateral common carotid arteries of both sides of ICR strain male mice (about 8 weeks old) were occluded for 5 minutes while lightly anesthetized, then blood was reperfuged. The test compounds were intraperitoneally administered 10 minutes before occlusion and within 3 hours after reperfusion. Since a day after reperfusion, behavior disorder was evaluated by spontaneous motor activity of exploratory behavior, traction test and passive avoidance test. That is, spontaneous motor activity was evaluated as follows. Motor activity was measured by tilting cage method for 30 minutes since immediately after a mouse was placed in a measurement cage. If the motor activity was at least more than (average of spontaneous motion of the group received solvent) +2×SD, the compound was evaluated as "active." In traction test, both fore limbs of the mouse were placed on the horizontally stretched wire. If the mouse put its hind limb within 2 seconds, the compound was estimated as "active.". In passive avoidance test, a step-through type apparatus was used, and as acquisition trial of blood reperfusion, electrical shock (about 0.5 mA, 3 seconds) was given to the mice as soon as the whole body of mice entered the black room and on the next day test trial was carried out. The mouse which stayed in a light room for at least 300 seconds was estimated as an active example. In all tests, the test compound which provided at least 50% of active animals was determined as "active." The results are shown in Table 5.

The test system of assay [4] is KCN-induced respiratory arrest. Briefly: in vivo Anti-anoxia effect (KCN lethal dose). The arrangement: species or system mouse (ICR strain, male). As to conditions: Mus musculus, po; * methansulfonate; KCN 3.0 mg/kg. Here is the method: 7. in vivo Anti-anoxia effect
A group (5 mice) of ICR strain male mice (about 8-week-old) were used. One or two hours after the test compounds were orally administered, a lethal dose (3.0 mg/kg) of KCN was administered into tail vein. A period of time to respiratory arrest and a survival rate were measured. The test compound which provided at least 50% of active example was determined as "active".

The test system of assay [5] is pig right coronary artery. Nature of the assay: in vitro Ca-antagonism (high K+ induced 45Ca-influx). It is filed as cell-based. As to conditions: Sus scrofa, K+ 75 mM. The essentials:
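Pig right coronary artery strips depolarized with 75 mM K^+ for 30 minutes in presence of compound at 10^-7, 10^-6, 10^-5 M. Extracellular ^45Ca chelated with EGTA and washed off; intracellular ^45Ca counted by scintillation after lysis at 100° C, giving % inhibition of K^+-induced uptake.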

The text below walks through data of patent publication US5594144A, “Tropolone derivatives and pharmaceutical composition thereof for preventing and treating ischemic diseases” (The Upjohn Company, priority 1990, dated 1997).

As for `COc1cc(C(C)C)ccc(C2Sc3ccccc3N2CCc2ccccc2)c1=O` (centres unmarked) [Compound 1B, 2-(2'-oxo-3'-methoxy-5'-isopropyl-3',5',7'-cycloheptatrienyl)-3-phenethylbenzothiazoline], in assay [1], the minimal effective dose was at least 3 mg/kg. For the same molecule, in assay [2], the “Anti-Lipid Peroxidation (% inhibition) 10 μM” value is 91.8% and the “Anti-Lipid Peroxidation (% inhibition) 50 μM” value is on record as 93.1%. Further, the minimal effective dose in assay [3] amounted to 0.1 mg/kg.

As for `CC(C)c1ccc(CN2CCN(C(c3ccc(F)cc3)c3ccc(F)cc3)CC2)c(=O)c(NCCN(C)C)c1` [Compound 1C, 7-[4-(4,4'-difluorobenzhydryl)piperazino-1-methyl]-2-(N-2-dimethylaminoethylamino)-4-isopropyl-2,4,6-cycloheptatrien-1-one], in assay [4], the minimal effective dose was found to be 100 mg/kg. In assay [5], this molecule came in with an inhibition at 10 µM of 81%. For the same molecule, in assay [2], the “Anti-Lipid Peroxidation (% inhibition) 10 μM” value was 59.4% and the “Anti-Lipid Peroxidation (% inhibition) 50 μM” value is recorded as 95.3%.
